Experimental findings from PubChem BioAssay (NCI) are described below.

Holding throughout (experiment): NCI tumour cell line growth inhibition, 48 h
Assay [1] deals with HCT-15 colon.
Assay [2] deals with SK-MEL-28 melanoma.
Assay [3] deals with UACC-257 melanoma.
The test system of assay [4] is SNB-19 CNS.
The test system of assay [5] is MOLT-4 leukemia.
For assay [6], the system named is MDA-MB-231 breast.
For assay [7], the system named is DU-145 prostate.
Assay [8] relates to OVCAR-8 ovarian.
Assay [9] has as its system M14 melanoma.
The test system of assay [10] is OVCAR-4 ovarian.

“And” between values parts separate entries of the source, which are not always exact repeats. Identical values can stand only once.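 Compound exposure: 48 hours, 5 concentrations, 96-well plates. GI50 = concentration required for 50% inhibition of growth. TGI: total growth inhibition.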 Some results are limits rather than exact numbers.

With `COc1cc(-c2ccc[nH]2)[nH]c1/C=C1\N=C(C)C(C(=O)NC(C)C)=C1C`, the GI50 in assay [1] is 2.08 µM; in assay [2], 7.17 µM; in assay [3] it was 2.54 µM; in [4], 10.4 µM; in assay [5] it was 2.47 µM; in assay [6], 2.76 µM. Further, the GI50 in [7] was 4.7 µM; in assay [8] it was 3.43 µM; in assay [9], 1.97 µM. In addition, the TGI in assay [1] came out at 13.5 µM; in assay [2] it was 19.8 µM; in assay [3] it was 6.42 µM; in [4], 23.8 µM; in assay [5], 24 µM; in assay [6] it was 12.9 µM. Also, the TGI in assay [7] was found to be 18.2 µM; in assay [8] it was 13.5 µM; in assay [9], 4.4 µM.
As for `C=C(c1ccc(C(=O)NCCCn2ccnc2)cc1)c1cc2c(cc1C)C(C)(C)CCC2(C)C`, the GI50 was 0.118 µM in assay [1]; 1.71 µM in [2]; 2.25 µM in assay [4]; 2.65 µM in [5]; 1.44 µM in assay [6]; 0.744 µM in [7]. For the same compound, the GI50 in [8] is 2.95 µM; in assay [9], 0.0627 µM; in assay [10] it was 4.1 µM. The TGI in assay [1] was 17 µM; in assay [2], 6.38 µM; in assay [3] it was 7.53 µM; in assay [4] it was greater than 100 µM; in assay [5], greater than 100 µM; in assay [6] it was 9.78 µM. Also, the TGI was greater than 62.5 µM in assay [7], 10.7 µM in assay [8], 2.04 µM in [9] and 26 µM in assay [10].
For the compound `COc1ccccc1CNCCCN1C(=O)c2ccc3c4c(ccc(c24)C1=O)C(=O)N(CCCNCCCCN)C3=O`, the GI50 in [1] is 1.85 µM; in assay [2] it was 0.425 µM; in [3] it was 0.166 µM; in assay [4], 0.51 µM; in assay [5], 0.324 µM; in assay [6], 0.236 µM. The GI50 was 0.664 µM in assay [7], 0.244 µM in assay [8], 0.355 µM in assay [9] and 0.165 µM in [10]. Moreover, the TGI in [1] was 10.8 µM; in [2] it was 1.54 µM; in assay [3], 0.317 µM; in assay [4], 2.58 µM; in assay [5], 1.26 µM; in assay [6] it was 2.78 µM. Further, the TGI in assay [7] stood at 2.35 µM; in assay [8], 0.933 µM; in assay [9] it was 1.15 µM; in assay [10] it was 0.319 µM.
For `COc1ccc([C@H]2c3[nH]c4ccccc4c3C[C@H]3C(=O)N(CCCCCCC(=O)NO)CC(=O)N23)cc1`, the GI50 was 9.05 µM in [1]; 1.29 µM in assay [2]; 1.12 µM in [3]; 4.34 µM in assay [4]; 1.11 µM in assay [5]; 2.27 µM in assay [6]. The GI50 in assay [7] was 1.83 µM; in assay [8], 1.33 µM; in assay [9] it was 1.75 µM; in [10], 12.4 µM. The TGI in [1], in [2], in [3], in [4], in [5] and in assay [6] was greater than 33.3 µM throughout. In addition, the TGI in assay [7], in assay [8], in assay [9] and in [10] was greater than 33.3 µM in each case.
On to `c1ccc2[nH]c(-c3cscn3)nc2c1`, for which the TGI in assay [1], in assay [2], in [3], in [4], in [5] and in assay [6] was greater than 100 µM in each case. For the same compound, the TGI in assay [7], in assay [8], in assay [9] and in [10] was greater than 100 µM in each case.
On to `C=C1CCC2C(C)(CO)C(O)CCC2(C)C1C/C=C1\C(=O)OCC1O` (stereo not drawn), for which the TGI in assay [1] was 39.5 µM; in [2] it was 27.3 µM; in assay [3], 73.8 µM; in assay [4], greater than 100 µM; in [5], greater than 100 µM; in assay [6] it was 58.9 µM. The TGI in assay [7] is greater than 100 µM; in [8], 22.6 µM; in [9], 53.7 µM; in assay [10] it was 23.5 µM.
`COc1cc(OC)c(OC)cc1/C=C\c1ccnc2ccccc12`: the TGI in assay [1] was greater than 100 µM; in assay [2], greater than 100 µM; in assay [3] it was greater than 100 µM; in assay [4], greater than 74.5 µM; in assay [5] it was greater than 90.2 µM; in assay [6] it was 28.8 µM. Further, the TGI is greater than 100 µM in assay [7], greater than 100 µM in assay [8], 38.9 µM in assay [9] and greater than 100 µM in [10].
Take `CSc1ccc2c(c1)N(CCCN(C)C)c1ccccc1S2`: the TGI in assay [1] was 30.4 µM; in assay [2], 6.7 µM; in [3] it was 19.9 µM; in assay [4] it was 30.6 µM; in [5], 20 µM; in assay [6] it was 26.3 µM. The TGI in [7] was 30.1 µM; in assay [8] it was 36.1 µM; in assay [9] it was 17.8 µM; in assay [10], 24.5 µM.
With `COc1cc(C(=O)Nc2ccc(-c3nc4ccccc4[nH]3)cc2)cc(OC)c1OC`, the GI50 in assay [1] is 6.61 µM; in [2] it was 13.7 µM; in assay [3] it was 17.8 µM; in assay [4], 11.6 µM; in assay [5], 9.82 µM; in assay [6], 9.38 µM. Also, the GI50 in assay [7] was 11.2 µM; in [8] it was 7.53 µM; in assay [10], 11.8 µM. The TGI amounted to 24.4 µM in assay [1]; 28.6 µM in [2]; 38.9 µM in assay [3]; 29.1 µM in [4]; 45.4 µM in [5]; 24 µM in assay [6]. Also, the TGI in [7] stood at 25.3 µM; in assay [8], 28.5 µM; in [10], 36.9 µM.
As to `CC(=O)Nc1ccc2c(c1)[nH]c(=O)c1cc(Cl)ccc12`, the TGI in assay [1] was greater than 100 µM; in [2], greater than 100 µM; in assay [3], 59.5 µM; in assay [4], greater than 100 µM; in [5], 8.53 µM; in assay [6], greater than 100 µM. Further, the TGI in [7] is greater than 100 µM; in assay [8], 64.9 µM; in assay [9] it was greater than 100 µM; in assay [10], greater than 100 µM.
For the compound `CCCC/C=C1/CCC(CN(C)C)C1=O` (stereo not drawn), the TGI was determined as 1.08 µM in [1]; 3.93 µM in [2]; 5.26 µM in [3]; 12.3 µM in [4]; 4.15 µM in assay [5]; 9.03 µM in assay [6]. Besides, the TGI in assay [7] is 28.9 µM; in assay [8], 4.08 µM; in [9], 3.26 µM; in assay [10], 8.27 µM. In addition, the GI50 in assay [5] was 1.21 µM.
With `O=C(Nc1ccc(-n2cc(-c3ccncc3)c(-c3ccc(Cl)c(O)c3)n2)cc1)c1ccc(Cl)c(Cl)c1`, the GI50 is 1.12 µM in assay [1]; 2.94 µM in [2]; 4.74 µM in assay [3]; greater than 100 µM in [4]; 4.02 µM in [5]; 1.17 µM in assay [6]. Moreover, the GI50 in assay [7] was greater than 100 µM; in assay [8], 4.68 µM; in assay [9], 2.35 µM; in [10] it was greater than 100 µM. The TGI in [1], in assay [2], in assay [3], in assay [4], in assay [5] and in assay [6] was greater than 100 µM throughout. In addition, the TGI is greater than 100 µM in assay [7], greater than 100 µM in assay [8], 7.56 µM in assay [9] and greater than 100 µM in assay [10].
With `Cc1nc(Nc2ccc(Cl)c(Cl)c2)sc1C(/C=C/c1ccc2c(c1)OCO2)=N/Nc1ccc([N+](=O)[O-])cc1[N+](=O)[O-]`, the TGI in [1] was greater than 100 µM; in [2] it was greater than 100 µM; in assay [3], greater than 100 µM; in assay [4], greater than 100 µM; in assay [5], greater than 56.2 µM; in assay [6], greater than 100 µM. The TGI in assay [7], in assay [8], in [9] and in assay [10] was greater than 100 µM each time.
Take `CC(=O)OCCc1cc2ccccc2oc1=O`: the TGI in [1], in assay [2], in assay [3], in assay [4], in assay [5] and in assay [6] was greater than 100 µM in each case. The TGI in assay [7], in assay [8], in [9] and in assay [10] was greater than 100 µM each time.
In the case of `COc1ccc(N=C2C(=O)Nc3ccc(Br)cc32)cc1`, the TGI in [1] is 44 µM; in [2], 84.6 µM; in [3] it was 48.1 µM; in assay [4] it was greater than 100 µM; in assay [5], 74.4 µM; in assay [6] it was 35.3 µM. The TGI in [7] is greater than 100 µM; in assay [8], 32.2 µM; in assay [9], 37.2 µM.
For the compound `O=C(Cc1csc2nc(-c3ccc(Br)cc3)cn12)N/N=C/c1ccccc1O`, the GI50 in assay [1] is 0.952 µM; in [2], 11.9 µM; in assay [3], 3.68 µM; in assay [4] it was 6.8 µM; in assay [5], 2.35 µM; in [6], 3.27 µM. Further, the values for the GI50 in assay [7], in assay [8] and in assay [9] were 2.89 µM, 2.28 µM and 2.58 µM, respectively. Also, the TGI in assay [1] was 17.3 µM; in assay [2] it was 24.2 µM; in assay [3], 11.6 µM; in assay [4], 25.4 µM; in assay [5], 10.8 µM; in [6], 17 µM. Besides, the results for the TGI in [7], in [8] and in assay [9] were 13.9 µM, 12.4 µM and 7.77 µM, respectively.
Turning to `N#CC(C#N)=C/C=C/c1ccccc1[N+](=O)[O-]`, the TGI in assay [1] is greater than 10 µM; in assay [2], 5.47 µM; in [3] it was greater than 10 µM; in assay [4] it was greater than 10 µM; in [5], greater than 10 µM; in assay [6], 7.01 µM. Further, the TGI in assay [7] is greater than 10 µM; in assay [8] it was 3.75 µM; in assay [10], greater than 10 µM.
As for `CC[C@]1(O)C[C@@H]2CN(CCc3c([nH]c4ccccc34)[C@@](C(=O)OC)(c3cc4c(cc3OC)N(C)[C@H]3[C@@](O)(C(=O)OC)[C@H](OC(=O)CCCBr)[C@]5(CC)C=CCN6CC[C@]43[C@@H]65)C2)C1`, the GI50 is 0.12 µM in assay [1]; 3.27 µM in assay [3]; less than 0.0215 µM in assay [4]; 0.026 µM in [5]; less than 0.01 µM in [7]; less than 0.0209 µM in assay [8]. The GI50 in assay [9] is 0.0543 µM. The TGI was greater than 100 µM in [1]; greater than 100 µM in [3]; greater than 100 µM in [4]; greater than 100 µM in assay [5]; 1.43 µM in assay [7]; greater than 100 µM in [8]. Besides, the TGI in assay [9] was determined as 25.9 µM; in assay [10], 33.5 µM.
For the compound `CC(=O)O[C@H]1C(=O)[C@@]2(C)C([C@H](OC(=O)c3ccccc3)[C@]3(O)C[C@H](OC(=O)[C@H](O)[C@@H](NC(=O)c4ccc(Cl)cc4)c4ccccc4)C(C)=C1C3(C)C)C1(OC(C)=O)CO[C@@H]1C[C@@H]2O` (stereo partly drawn), the GI50 is 0.2 µM in [1], 0.013 µM in assay [3], 0.0849 µM in assay [4] and 4.89 µM in assay [10]. The TGI in [1] is 25 µM and 4.92 µM; in assay [2], 25 µM; in [3] it was 25 µM and 36.8 µM; in assay [4], 25 µM and > 100 µM; in [5], 25 µM and 4.77 µM; in [6] it was 25 µM. In addition, the TGI was 0.452 µM in assay [7]; 0.733 µM in assay [9]; 25 µM and 68 µM in assay [10].
`CC1(C)N=C(N)N=C(N)N1c1ccc(CCCCCCc2ccc(S(=O)(=O)F)cc2)cc1`: the TGI was found to be 20.9 µM in assay [1]; 37.7 µM in assay [2]; 5.17 µM in [4]; 16.5 µM in [6]; 21.1 µM in assay [7]; 7.01 µM in assay [8]. For the same compound, the TGI in assay [9] is 28.7 µM; in assay [10], greater than 100 µM.
